Assay results published in US20050096370A1, “Method for inhibiting tumor angiogenesis and tumor growth” (Bizbiotech Co., Ltd., priority 2003, published 2005).

Tests used:
[1] = tested on: HIF-1-regulated genes (VEGF, aldolase A, and enolase 1); assay: semi-quantitative RT-PCR of HIF-1α and HIF-1-regulated gene mRNA in Hep3B cells; format: cell-based, human; conditions: 16 hours
Description: FIG. 2 is an autoradiograph showing mRNA levels of VEGF, aldolase A, enolase 1, HIF-1α, and β-actin.
Immunoblotting was used to detect HIF-1 protein in cultured cells, as described (Chun et al., Biochem Pharmacol 2001 61:947-954). Cells were centrifuged at 3000 rpm for 5 minutes at VC and then washed twice with ice-cold phosphate buffered saline (PBS). Cells were then resuspended in ten packed cell volumes of alysis buffer consisting of 10 mM Tris, pH 7.4, 130 mM NaCl, 2 mM EDTA, 1% Nonidet P-40, 0.5 mM dithiothreitol, and 0.5 mM phenylmethylsulfonyl fluoride. […] To quantify mRNAs for HIF-1α and HIF-1-regulated genes, we performed a highly sensitive, semi-quantitative reverse transcription-polymerase chain reaction (RT PCR), as described previously (Chun et al., J Cell Sci 2001 114:4051-4061). […] P-actin mRNA was measured as a PCR control. […] To assess whether the VEGF mRNA levels affected levels of VEGF protein secreted into the medium, we measured VEGF protein levels in Hep3B cell-conditioned medium. […] VEGF levels in the conditioned media were quantified by using the Quantikine human VEGF Immunoassay kit (R&D Systems, Minneapolis, Minn.) according to the manufacturer's recommended protocol. The VEGF concentrations were quantified by comparison with a series of VEGF standard samples included in the assay kit. […]

[2] = tested on: HIF-1-regulated genes (VEGF, aldolase A, enolase 1); assay: RT-PCR of HIF-1-regulated gene mRNA in Hep3B xenografts; format: in vivo, nude mice; conditions: 30 μg/g daily i.p. 2 weeks
Description: Male nude mice were injected subcutaneously in the flank with 5×10^6 viable Hep3B cells. […] After the last treatment, the mice were euthanized, the tumors removed and lysates prepared for mRNA analysis. The mRNA levels of VEGF, aldolase A, enolase 1, and β-actin were measured by semi-quantitative RT-PCR. The quality of the extracted RNAs was verified by identifying the 18S ribosomal RNA (rRNA) on a 1% denaturing agarose gel.
The quality of the extracted RNAs was verified by identifying the 18S ribosomal RNA (rRNA) on a 1% denaturing agarose gel. VEGF, aldolase A and enolase 1 mRNA levels were also lower in YC-1-treated tumors than in vehicle-treated tumors one experiment. Results are expressed as the mean and 95% confidence intervals of 4 separate experiments.

OCc1ccc(-c2nn(Cc3ccccc3)c3ccccc23)o1 [YC-1, 3-(5′-hydroxymethyl-2′-furyl)-1-benzylindazole]
HIF-1α mRNA level [1]: relatively unchanged
expression of HIF-1-regulated genes (VEGF, aldolase A, and enolase 1) mRNA ([1]; hypoxic): dose dependently decreased
VEGF, aldolase A and enolase 1 mRNA levels in tumors versus vehicle [2]: lower
